Earlier results as cited in US5998407A, “Inhibitors of farnesyl-protein transferase” (Merck & Co., Inc., priority 1998, dated 1999).

System: farnesyl-protein transferase
Conditions: via inhibition of HMG-CoA reductase

## CC[C@H](C)C(=O)O[C@H]1CCC=C2C=C[C@H](C)[C@H](CC[C@@H]3C[C@@H](O)CC(=O)O3)[C@H]21 [compactin]
  Indirect inhibition of farnesyl-protein transferase in vivo: Indirect inhibition of farnesyl-protein transferase in vivo has been demonstrated

## CC[C@H](C)C(=O)O[C@H]1C[C@@H](C)C=C2C=C[C@H](C)[C@H](CC[C@@H]3C[C@@H](O)CC(=O)O3)[C@H]21 [lovastatin]
  Indirect inhibition of farnesyl-protein transferase in vivo: Indirect inhibition of farnesyl-protein transferase in vivo has been demonstrated
